No end group written: not given here.
Assays:
[1] = Digestion test using artificial intestinal juice (Example 11); type: in vitro ADME; details: 10 mg in 1 mL, pancreatin, pH 6.8, 37° C., 120 minutes and overnight, HPLC; FIG. 36
Description: Ten milligrams of the synthetic peptide No. 1 was dissolved in 1 mL of artificial intestinal juice (0.34% KH2PO4, 0.36% Na2HPO4, 1% pancreatin, adjusted to pH 6.8), and the mixture was allowed to react under shaking at 37° C. Samples were collected before the reaction, 120 minutes after the reaction and after overnight reaction, and subjected to HPLC [column: ODS column (size: diameter 46 mm×500 mm, SHIMADZU); mobile phase: (A) 0.05% TFA, (B) 90% acetonitrile/0.05% TFA; gradient: 2% B (0 min), 20% B (50 min), 100% B (50.1 min), 100% B (55 min); detection: UV 215 nm] to examine whether the synthetic peptide No. 1 was decomposed by the intestinal juice (resistance to the intestinal juice).

[2] = Digestion test using artificial gastric juice (Example 11); type: in vitro ADME; details: 10 mg in 1 mL, pepsin, pH 3.0, 37° C., 60 and 120 minutes, HPLC; FIG. 35
Description: A test using artificial gastric juice was performed on the synthetic peptide No. 1. Ten milligrams of the synthetic peptide No. 1 was dissolved in 1 mL of artificial gastric juice (0.2% NaCl, 0.32% pepsin, 2.4% diluted hydrochloric acid, adjusted to pH 3.0), and the mixture was allowed to react under shaking at 37° C. Samples were collected before the reaction and 60 and 120 minutes after the reaction, and subjected to HPLC [column: ODS column (size: diameter 46 mm×500 mm, SHIMADZU); mobile phase: (A) 0.05% TFA, (B) 90% acetonitrile/0.05% TFA; gradient: 2% B (0 min), 20% B (50 min), 100% B (50.1 min), 100% B (55 min); detection: UV 215 nm] to examine whether the synthetic peptide No. 1 was decomposed by the gastric juice (resistance to the gastric juice).

[3] = Effect on body weight (Example 7); type: in vivo; details: rats, days 1, 3, 5 and 7; peptide 1, 10 or 100 mg/kg/day oral, hGH 500 μg/kg/day subcutaneous; FIG. 24
Description: The synthetic peptide No. 1 or water for injection (control) was administered to male Crlj:WI rats at the age of four weeks by oral gavage using a gastric tube once a day for seven days (n=10 in each group). The dosage of the synthetic peptide was 1, 10 or 100 mg/kg/day. As a positive control, human growth hormone (hGH) (Norditropin, Japan Standard Commodity Classification Number: 872412) was subcutaneously administered at 500 μg/kg/day once a day for seven days. The body weight was measured on days 1, 3, 5 and 7 of administration.

decomposition by artificial gastric juice (resistance to the gastric juice) [2]: not decomposed
Sequence: VNPESEEE [synthetic peptide No. 1, Val-Asn-Pro-Glu-Ser-Glu-Glu-Glu]
decomposition by artificial intestinal juice (resistance to the intestinal juice) [1]: totally decomposed into a peptide having the sequence of the synthetic peptide No. 2
change in the body weight [3]: No significant change
